From patent US20240297323A1, “BIOBASED AQUEOUS ORGANIC-BASED ELECTROLYTE IN AQUEOUS ORGANIC REDOX FLOW BATTERY” (KEMIWATT, priority 2021, published 2024)
Converted amounts (≈) assume the structure as drawn. Read-outs that look alike come from different tables or passages of the source.

Key:
[1] = redox-active molecules used in negolytes in ARFBs; cited from earlier work
[2] = Post-cycling analyses of the negolyte (cyclic voltammetry and 1H NMR before and after cycling); type: physicochemical; conditions: for chemical stability in the application: conclusion from cycling and post-cycling analyses; for degradation during the cycling test (1H NMR in D2O before/after): negolyte after cycling
Description: FIG. 3: Cyclic voltammetry (3rd cycle) of the negolyte (black line) before the cycling test and (grey line) after cycling test, recorded at a scan rate of 100 mV·s^−1.
FIG. 4: ^1H NMR spectra of the negolyte, recorded in D2O between 0 and 10 ppm, (black line) before and (grey line) after the cycling test.
A preliminary electrochemical test was performed on the negolyte before and after the cycling test (FIG. 3).
Further analyses were performed using ^1H NMR spectroscopy, see FIG. 4.
A preliminary electrochemical test was performed on the negolyte before and after thousands of cycles and a few months of cycling test (FIG. 7).
Further analyses were performed using ^1H NMR spectroscopy, see FIG. 8.
A preliminary electrochemical test was performed on the negolyte before and after the cycling test (FIG. 10) which lasted for more than 1000 cycles, or 25 days of constant cycling.
Further analyses were performed using ^1H NMR spectroscopy, see FIG. 11.

[3] = Water solubility by shake-flask method in alkaline aqueous solution; type: physicochemical; conditions: for solubility: aqueous buffer, thermodynamic from solid
Description: The solubility of the compounds was evaluated in aqueous solution at various pH by shake-flask method. An aqueous solution (containing either KOH 1 M, NaOH 1 M, or a mixture of KOH 0.5 M and NaOH 0.5 M) is added over 100 mg of compound by 20 μL portions until complete solubilization. We obtain an approximate range of solubility values calculated as following:
Smax˜(m/M)/V; m=mass of evaluated compound(g);M=molar mass of evaluated compound(g·mol^−1);V=added volume(L).

[4] = Electrochemical properties at diluted state (cyclic voltammetry, RDE linear sweep voltammetry); type: physicochemical; conditions: for k^0′O × 10^−2 apparent heterogeneous rate constant: Gileadi's equation, transfer coefficient 0.5; for E1/2 half-wave potential: LSV with RDE, 400 up to 1 000 RPM, pH 14; for DO × 10^−6 diffusion coefficient: Randles-Sevcik, scan rates 10 mV/s up to 20 V/s; for Peak-to-peak separation ΔEp at pH 14: pH 14 (KOH 1 M), 5.10^−3 M, scan rate 100 mV·s^−1, third cycle
Description: Cyclic voltammetry experiments were performed at a 100 mV/s scan rate for compounds A, B and B-M3CH in a solution at pH 14 (KOH 1 M).
The electrochemical experiments were conducted on an electrochemical working station (BioLogic Science Instruments VSP) at 25° C. using a three-electrodes electrochemical cell, where a Pt wire was employed at the counter electrode (CE), an Ag/AgCl/KCl saturated electrode immerged in a 1 M KOH solution protected from the cell by a porous frit glass served as the reference electrode (RE) and a rotating disc electrode (RDE) mounted with a glassy carbon (GC, 7.069 mm^2) disk was used as the working electrode (WE), respectively. The potential was reported relative to the normal hydrogen electrode (NHE), which was converted from the Ag/AgCl reference electrode (0.230 V versus NHE). The ohmic drop between the WE and RE is determined by current interrupt experiments and leads to a value close to 0.7069 Ω·cm^2. All cyclic voltammetry experiments were conducted by alleviating most of this resistance (85%) using the potentiostat manual ohmic drop compensation. Before each electrochemical measurement, the GC disk electrode was polished using SiC P4000 foil.
Each recorded cyclic voltammetry of the reduction and the oxidation process of a compound at a given scan rate is analyzed by measuring ip,a=anodic peak current; ip,c=cathodic peak current; v=scan rate; Ep,a=anodic peak potential; Ep,c=cathodic peak potential; ΔEp=Ep,a−Ep,c; the apparent standard redox potential E^0′=[…].
Linear sweep voltammetry (LSV) using the RDE at various rotation speed (400 up to 1 000 RPM) were performed to determine the averaged half-wave potential E1/2.
The oxidation (DO) and the reduction (DR) diffusion coefficients were calculated using Randles-Sevcik (RS) equation ip=0.4463.n^3/2.F^3/2.A.C.v^1/2.D^1/2.R^−1/2.T^−1/2=Cte.v^1/2.D^1/2, n=number of electrons exchanged during the redox process; F=faradaic number=96485 C·mol^−1; A=electrode active surface; C=redox active molecule concentration; R=gas constant=8.314 J·K^−1·mol^−1; T=bulk temperature=299 K. The experiments are conducted by cyclic voltammetry at various scan rates ranging from 10 mV/s up to 20 V/s.
A graphic of |ip,a| and |ip,c|=f(Cte.v^1/2) is plotted, if the redox process is reversible and diffusion controlled, the peak current should be proportional to the square root of the scan rate. The diffusion coefficients (oxidation and reduction) are then calculated by taking the square of the regression lines slopes. Diffusion coefficients (oxidation and reduction processes) are evaluated by plotting the peak current versus a constant multiplied by the square root of the scan rate. The plots regression line gives a straight line with perfect correlation coefficient (100%) confirming that the redox process is reversible and diffusion controlled. The square of each slope gives the associated coefficient diffusion in cm^2·s^−1.
The apparent heterogeneous rate constant during reduction (k^0′O) process was calculated using Gileadi's equation (C. Russel, W. Jaenicke, Electrochimica Acta, Vol 27, No. 12, 1745-1750, 1982) log k^0′=−0.48.α+0.52+log[(n.F.α.vc.D)/(2.303.R.T)]^1/2; vc is the critical scan rate, it is calculated by plotting the peak potentials versus the logarithm of the scan rates, and is more precise when a very wide range of scan rates is used, which is the case here (0.010 up to 20 V·s^−1), it is determined at the x-axis of the point of intersection of the regression lines drawn at low and high scan rates; a is the transfer coefficient that is supposed to be close to 0.5 for all presented compounds.
Peak-to-peak separation ΔEp values were determined from the third cycle of each cyclic voltammogram and are gathered in the following table 2.
The standard redox process reversibility evaluation is performed in diluted state, at 5 mM of concentration, at pH 14 buffered with 1 M of KOH. […]

[5] = aqueous KOH 1 M solution, aqueous KOH 1 M, shake-flask, approximate, read-out: solubility estimated, KOH (1M)
[6] = aqueous NaOH 1 M solution, aqueous NaOH 1 M, shake-flask, approximate, read-out: solubility estimated, NaOH (1M)
[7] = aqueous alkaline solution, aqueous alkaline environment, read-out: solubility in aqueous alkaline environment
[8] = aqueous mixture of KOH 0.5 M and NaOH 0.5 M, mixture of KOH 0.5 M and NaOH 0.5 M, shake-flask, approximate, read-out: solubility estimated, KOH 0.5M + NaOH 0.5M

Row | degradation during the cycling test (1H NMR in D2O before/after) [2] | solubility [3, 5] [mM] | solubility [3, 6] [mM] | solubility [3, 8] [mM] | k^0′O × 10^−2 apparent heterogeneous rate constant [4] | E1/2 half-wave potential [4] [V vs NHE] | DO × 10^−6 diffusion coefficient [4] | Peak-to-peak separation ΔEp at pH 14 [4] [mV] | SMILES | DO × 10^−6 [1] | k^0′O × 10^−2 [1] | other results
1 |  |  |  |  |  |  |  |  | O=C1c2ccc(S(=O)(=O)O)cc2C(=O)c2cc(S(=O)(=O)O)ccc21 [AQ-2,7-DS] | 3.8 × 10^−6 cm^2/s | 0.72 × 10^−2 cm/s | 
2 |  |  |  |  |  |  |  |  | C[N+](C)(C)CCC[n+]1ccc(-c2cc[n+](CCC[N+](C)(C)C)cc2)cc1.[Cl-].[Cl-].[Cl-].[Cl-] [BTMAP-Vi] | 3.3 × 10^−6 cm^2/s | 2.2 × 10^−2 cm/s | 
3 | degraded into multiple compounds | 480 (≈ 143 mg/mL) | 320 (≈ 95.4 mg/mL) | 490 | 0.78 × 10^−2 cm/s | −0.59 | 3.65 × 10^−6 cm^2/s | 56 | Cc1c(C(=O)O)c(O)cc2c1C(=O)c1c(O)cccc1C2=O [Compound A] |  |  | oxidation not originally present in the negolyte ([2]; after cycling): −0.57 V vs Ag/AgCl; chemical stability in the application [2]: low chemical stability; solubility [3, 7]: > 300 mM
4 | does not undergo any degradation | 580 (≈ 147 mg/mL) | 500 (≈ 127 mg/mL) | 630 | 0.80 × 10^−2 cm/s | −0.57 | 2.99 × 10^−6 cm^2/s | 40 | Cc1cc(O)cc2c1C(=O)c1c(O)cccc1C2=O [Compound B, 3,8-dihydroxy-1-methylanthracene-9,10-dione] |  |  | decrease of redox signature current intensity after cycling ([2]; after thousands of cycles and a few months, ascribed to osmosis dilution): 30-35%; solubility [3, 7]: > 300 mM
5 | does not undergo any degradation | 150 (≈ 51 mg/mL) | 150 (≈ 51 mg/mL) | ~430 | 2.47 × 10^−2 cm/s | −0.49 | 4.58 × 10^−6 cm^2/s | 30 | Cc1cc(OCCCC(=O)O)cc2c1C(=O)c1c(O)cccc1C2=O [Compound B-M3CH, 4-((5-hydroxy-4-methyl-9,10-dioxo-9,10-dihydroanthracen-2-yl)oxy)butanoic acid] |  |  | increase of redox signature current intensity after cycling ([2]; after more than 1000 cycles, 25 days, ascribed to osmosis concentration): about 30%; chemical stability in the application [2]: increased its stability; solubility ([3]; aqueous KOH 1 M or NaOH 1 M solution, KOH 1 M or NaOH 1 M, read-out: solubility in ionic environment containing one type of alkaline cation): ~150 mM (≈ 51 mg/mL); solubility estimated, KOH 0.5M + NaOH 0.5M ([3]; mixture of KOH 0.5 M and NaOH 0.5 M, shake-flask, approximate): 430 mM
6 |  |  |  |  |  |  |  |  | O=C(O)CCCOc1ccc2c(c1)C(=O)c1ccc(OCCCC(=O)O)cc1C2=O [DBEAQ] | 1.58 × 10^−6 cm^2/s | 0.70 × 10^−2 cm/s | 
7 |  |  |  |  |  |  |  |  | O=C1c2ccc(O)cc2C(=O)c2ccc(O)cc21 [DHAQ] | 4.8 × 10^−6 cm^2/s | 0.70 × 10^−2 cm/s | 
8 |  |  |  |  |  |  |  |  | O=C1C=C(O)C(=O)C=C1O [DHBQ] | 3.66 × 10^−6 cm^2/s | 0.21 × 10^−2 cm/s | 
9 |  |  |  |  |  |  |  |  | O=C1c2ccc(OCCCP(=O)(O)O)cc2C(=O)c2ccc(OCCCP(=O)(O)O)cc21 [DPPEAQ] | 1.37 × 10^−6 cm^2/s |  | 
10 |  |  |  |  |  |  |  |  | Cc1cc2nc3c(=O)[nH]c(=O)nc-3n(C[C@H](O)[C@H](O)[C@H](O)COP(=O)([O-])O)c2cc1C.[Na+] [Flavine FMN-Na] | 1.3 × 10^−6 cm^2/s | 0.53 × 10^−2 cm/s | 
